# Measurements published in US10654815B2, “Urea compound and preparation method and application thereof” (SHENZHEN CHIPSCREEN BIOSCIENCES CO., LTD., priority 2016, dated 2020).
# pIC50: −log10 of the molar value.
# Columns and labels:
# [1] = system: T cell leukemia cell line (Jurkat cell); assay: Cytotoxic activity, MTS assay in T cell line; format: cell-based; details: Homo sapiens, Jurkat cells, compound 2 μM, 72 h, relative to solvent control (DMSO)
# Source text: In order to rule out the biological function changes of T cell caused by cytotoxic effects of the compounds themselves, MTS assay was used as a routine cytotoxicity detection method. The basic principle was that the dehydrogenase in the living cell mitochondria was capable of metabolizing and reducing the new type yellow […] compound MTS to formazan. The amount of formazan product measured at 490 nm absorbance (OD) was directly proportional to the number of viable cells in the culture, and thus whether the test compound itself had the ability of inhibiting cell growth or killing cells can be judged basing on the OD value.
# In this experiment, the T cell leukemia cell line (Jurkat cell) was evaluated for its cell growth activity according to the MTS assay.
# The MTS was carried out in a 96-well plate according to a routine experimental procedure.
# Cell lines were inoculated into a 96-well plate at an appropriate concentration (approximately 20,000 cells/well), test compounds (final concentration 2 μM) were added, and at the same time solvent control (DMSO) and negative control wells were set, and the well was set in triplicate. The cells were further cultured for 72 h followed by detection.
# After the culture, 20 μL of the a pre-prepared mixture of MTS and PMS (mixed in a ratio of 20:1) was added directly to the culture well, and incubated in a 37° C. incubator for 2 h, and then detection was conducted using a microplate reader (490 nm).
# The background value of the negative control was subtracted, and the relative cell activity (%) of the test compound on cell growth=(OD value of the test well/OD value of the solvent control well)×100%.
# PD-1/PD-L1 binding = target: T1, PD-1/PD-L1 binding (UniProt Q9NZQ7); assay: In-vitro PD-1/PD-L1 binding inhibition (HTRF); set-up: species or system human; details: His-PD-1 100 nM, PD-L1-Fc 2 nM final, read-out: IC50 on inhibiting PD-1/PD-L1 binding in-vitro
# T1 construct: fused on or other part: human IgG Fc (hFc tag) fused to PD-L1
# Source text: Main Principle of the Experiment (HTRF)
# Homogeneous Time-Resolved Fluorescence (HTRF): The PD-1 protein carried an His tag and the Fc fusion protein of its ligand PD-L1 carried an hFc tag. An anti-hFc antibody labeled with a chelating marker of Eu element and an anti-His antibody labeled with XL66 were respectively combined with two corresponding tags. After laser excitation (320 nm), energy was transferred from the donor Eu to the acceptor XL665, so that the XL665 emitted light (665 nm). […] The basic detection principle was as follows (see FIG. 3):
# The His-tagged human recombinant PD-1 protein (Cat#: 80448-R08H-100) and human recombinant PD-L1-Fc fusion protein (Cat#: 90251-CO2H-100) were purchased from Sino Biological Inc., and the anti-hFc-Eu3^+ and anti-His-XL665 antibody were purchased from Cisbio. Other related reagents such as dilution buffer, detection buffer were all purchased from Cisbio. The fluorescence detection instrument Tecan (Spark 10M) was purchased from Tecan, Switzerland.
# The experimental process was carried out in accordance with the procedure required by the instruction manual for the test reagent […]. The process was as follows:
# (1) Preparation of the experiment: The test compound was diluted to a different concentration gradient with a dilution buffer (the maximum final concentration was 10 μM in 20 μL final reaction system), the His-PD-1 protein was diluted to 800 nM (the final concentration was 100 nM in 20 μL final reaction system), and the PD-L1-Fc fusion protein was diluted to 16 nM (the final concentration was 2 nM). The anti-His-XL665 antibody and the anti-hFc-Eu^3+ antibody were diluted 20-fold and 100-fold, respectively, with the test diluent according to the reagent requirements.
# (2) 5 μL of the test compound, 2.5 μL of PD-L1 protein and 2.5 μL of PD-1 protein solution were evenly mixed, and then reacted at room temperature for 15 min. Subsequently, 5 μL of anti-His-XL665 antibody and 5 μL of anti-hFc-Eu^3+ antibody were added to the system, and the incubation was continued for 3 hours followed by detection.
# (3) At the same time of detection of the reaction, control groups were set, including a 0-inhibited positive control to which no test compound was added, and a negative control to which no PD-1 protein was added. All tests were run in duplicate.
# (4) The fluorescence signal of each well was detected by a fluorescence detector Tecan (Spark 10M) with an excitation wavelength of 320 nm and detected emission wavelengths of 620 nm and 665 nm, respectively. The intensity of PD-1/PD-L1 binding to each other referred to the fluorescence signal ratio Em665/Em620.
# (5) Formula for calculating the binding inhibition rate of test compounds: inhibition rate (%)=[1−(ratio of fluorescence signals of detection holes−negative control)/(ratio of fluorescence signals of 0-inhibited positive control−negative control)×100%. After calculating the binding inhibition rate of the test compounds with different concentration gradients, the 50% inhibitory concentration (IC50) was further calculated.
# [2] = system: PD-1/PD-L1 interaction in human peripheral mononuclear cells (PBMC); assay: PD-1 signal inhibition at cellular level: IL-2 secretion of SEB-stimulated PBMC (ELISA); format: cell-based; details: SEB 200 ng/mL-stimulated volunteer PBMC, compound 2 μM, 96 h; compared to anti-human PD-1 antibody (5 μg/mL)
Structure (SMILES),pIC50 (PD-1/PD-L1 binding),activity at 2 µM [1] [%],Activity of promoting IL-2 (%) [2] [%]
"Cc1c(COc2ccc(CNCCNC(=O)N[C@@H](COC(C)(C)C)C(=O)OC(C)(C)C)c(OCc3cccc(C#N)c3)c2)cccc1-c1ccccc1 [Compound I-3, 1-((2-(2-(3-cyanophenyl)methoxy-4-(2-methyl-(1,1′-diphenyl)-3-yl-methoxy))benzylamino)-2-ethyl)-3-(2-tert-butyl-O-tert-butyl-L-serinate-2-yl)urea]",5.51,99.7,–
Cc1cc(CNCCNC(=O)NCCN(C)C)c(OCc2cncc(C#N)c2)cc1OCc1cccc(-c2ccc3c(c2)OCCO3)c1C#N [Compound I-11],7.12,95.6,51.7
"Cc1c(COc2ccc(CNCCNC(=O)NCCO)c(OCc3cccc(C#N)c3)c2)cccc1-c1ccccc1 [Compound I-2, 1-((2-(2-(3-cyanophenyl)methoxy-4-(2-methyl-(1,1′-diphenyl)-3-yl-methoxy))benzylamino)-2-ethyl)-3-(2-hydroxyethyl)urea]",6.24,100,–
C=CC(=O)NCCNC(=O)NCCNCc1cc(C)c(OCc2cccc(-c3ccc4c(c3)OCCO4)c2C#N)cc1OCc1cncc(C#N)c1 [Compound I-14],6.71,102,–
"Cc1c(COc2ccc(CNCCNC(=O)NCCN3CCOCC3)c(OCc3cccc(C#N)c3)c2)cccc1-c1ccccc1 [Compound I-1, 1-((2-(2-(3-cyanophenyl)methoxy-4-(2-methyl-(1,1′-diphenyl)-3-yl-methoxy))benzylamino)-2-ethyl)-3-(2-(N-morpholine)ethyl)urea]",5.77,102,–
Cc1cc(CNCCOCCNC(=O)NCCO)c(OCc2cncc(C#N)c2)cc1OCc1cccc(-c2ccc3c(c2)OCCO3)c1C#N [Compound I-7],7.36,94.5,58.1
Cc1cc(CNCCNC(=O)NC(CO)(CO)CO)c(OCc2cncc(C#N)c2)cc1OCc1cccc(-c2ccc3c(c2)OCCO3)c1C#N [Compound I-5],7.44,94.6,53
C=C(NC(=O)NCCNCc1cc(C)c(OCc2cccc(-c3ccc4c(c3)OCCO4)c2C#N)cc1OCc1cncc(C#N)c1)C(=O)O [Compound I-6],7.15,92.1,56.3

# Now from value to compound, other results behind:
pIC50 (PD-1/PD-L1 binding),Structure (SMILES),activity at 2 µM [1] [%],Activity of promoting IL-2 (%) [2] [%]
7.43,Cc1cc(CNCCNC(=O)NCCO)c(OCc2cncc(C#N)c2)cc1OCc1cccc(-c2ccc3c(c2)OCCO3)c1C#N [Compound I-4],93.2,–
7.31,Cc1cc(CNCCNC(=O)NCCS(C)(=O)=O)c(OCc2cncc(C#N)c2)cc1OCc1cccc(-c2ccc3c(c2)OCCO3)c1C#N [Compound I-12],91.6,–
7.13,Cc1cc(CNCCOCCNC(=O)NCCN(C)C)c(OCc2cncc(C#N)c2)cc1OCc1cccc(-c2ccc3c(c2)OCCO3)c1C#N [Compound I-10],97.1,–
7.55,Cc1cc(CNCCOCCNC(=O)NCCS(C)(=O)=O)c(OCc2cncc(C#N)c2)cc1OCc1cccc(-c2ccc3c(c2)OCCO3)c1C#N [Compound I-9],99.6,–
7.80,Cc1cc(CNCCNC(=O)N[C@@H](CO)C(=O)O)c(OCc2cncc(C#N)c2)cc1OCc1cccc(-c2ccc3c(c2)OCCO3)c1C#N [Compound I-13],91.1,–
7.21,Cc1cc(CNCCNC(=O)NCCN2CCOCC2)c(OCc2cncc(C#N)c2)cc1OCc1cccc(-c2ccc3c(c2)OCCO3)c1C#N [Compound I-8],95.1,–
